Several values for one entry are separate records, joined by “and”; a condition that tells them apart may be missing. Identical values can stand only once.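 Step 1: Grow cells in 96-well plates. Step 2: Expose to compound for 48 hours at 5 concentrations. Step 3: Interpolate endpoints linearly; if unreached, use highest concentration. Here, GI50 denotes the concentration required for 50% inhibition of growth. TGI denotes the concentration required for complete inhibition of growth.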
Key:
Test in all cases: NCI-60 cell line screen, 48 h
A549 NSCLC = tested on: A549 NSCLC
ACHN renal = tested on: ACHN renal
HCT-116 colon = tested on: HCT-116 colon
HOP-62 NSCLC = tested on: HOP-62 NSCLC
OVCAR-8 ovarian = tested on: OVCAR-8 ovarian
SF-268 CNS = tested on: SF-268 CNS
SF-295 CNS = tested on: SF-295 CNS
SK-OV-3 ovarian = tested on: SK-OV-3 ovarian
SR leukemia = tested on: SR leukemia
TK-10 renal = tested on: TK-10 renal

COC(=O)[C@H]1C(=O)[C@@]2(C)[C@H]([C@H](OC(=O)c3ccccc3)[C@]3(O)C[C@H](OC(=O)[C@H](O)[C@@H](NC(=O)c4ccc(F)cc4)c4ccccc4)C(C)=C1C3(C)C)[C@]1(OC(C)=O)CO[C@@H]1C[C@@H]2O gave a GI50 (A549 NSCLC) of 0.0116 µM, a TGI (A549 NSCLC) of over 25 µM and a GI50 (ACHN renal) of 1.6 µM. The TGI (ACHN renal) was over 25 µM, the GI50 (HCT-116 colon) was 0.00432 µM and the TGI (HCT-116 colon) was over 25 µM. The GI50 (HOP-62 NSCLC) was 0.0112 µM, the TGI (HOP-62 NSCLC) was over 6.58 µM and the GI50 (OVCAR-8 ovarian) was 0.0171 µM. For the same compound, the TGI (OVCAR-8 ovarian) was over 25 µM, the GI50 (SF-268 CNS) was 0.0151 µM and the TGI (SF-268 CNS) was over 25 µM. For the same compound, the GI50 (SF-295 CNS) was 0.00919 µM, the TGI (SF-295 CNS) was 0.0639 µM and the GI50 (SK-OV-3 ovarian) was 0.0115 µM. It also gave a TGI (SK-OV-3 ovarian) of over 25 µM, a GI50 (SR leukemia) of 0.00428 µM and a TGI (SR leukemia) of 1.69 µM. The GI50 (TK-10 renal) was 0.0676 µM and the TGI (TK-10 renal) was 3.91 µM.

Compound C#CCSc1n[nH]c(-c2ccco2)n1 has a TGI (A549 NSCLC) of over 100 µM, a TGI (ACHN renal) of over 100 µM and a TGI (HCT-116 colon) of over 100 µM. It also gave a TGI (HOP-62 NSCLC) of over 100 µM, a TGI (OVCAR-8 ovarian) of over 100 µM and a TGI (SF-268 CNS) of over 100 µM. The TGI (SF-295 CNS) was over 100 µM, the TGI (SK-OV-3 ovarian) was over 100 µM and the TGI (SR leukemia) was over 100 µM. For the same compound, the TGI (TK-10 renal) was over 100 µM.

CC1CN(c2ccc(Cl)cc2)CC(C)(C)OC(=O)O1 (stereo not drawn) was tested, and the TGI (A549 NSCLC) was over 100 µM, the TGI (ACHN renal) was over 100 µM and the TGI (HCT-116 colon) was over 100 µM. The TGI (HOP-62 NSCLC) was over 100 µM, the TGI (OVCAR-8 ovarian) was over 100 µM and the TGI (SF-268 CNS) was over 100 µM. For the same compound, the TGI (SF-295 CNS) was over 100 µM, the TGI (SK-OV-3 ovarian) was over 100 µM and the TGI (SR leukemia) was over 100 µM. It also gave a TGI (TK-10 renal) of over 100 µM.

Compound COc1ccc(-c2nsc3c2NC(=O)CC3c2ccc(F)cc2)cc1 (stereo not drawn) has a GI50 (A549 NSCLC) of 4.58 µM, a TGI (A549 NSCLC) of over 100 µM and a GI50 (ACHN renal) of 6.73 µM. The TGI (ACHN renal) was over 100 µM, the GI50 (HCT-116 colon) was 3.95 µM and the TGI (HCT-116 colon) was over 100 µM. The GI50 (HOP-62 NSCLC) was 7.06 µM, the TGI (HOP-62 NSCLC) was 49 µM and the GI50 (OVCAR-8 ovarian) was 5.66 µM. For the same compound, the TGI (OVCAR-8 ovarian) was over 100 µM, the GI50 (SF-268 CNS) was 10.2 µM and the TGI (SF-268 CNS) was over 100 µM. For the same compound, the GI50 (SF-295 CNS) was 4.08 µM, the TGI (SF-295 CNS) was over 29.1 µM and the GI50 (SK-OV-3 ovarian) was 4.59 µM. The TGI (SK-OV-3 ovarian) was over 100 µM, the GI50 (SR leukemia) was 1.1 µM and the TGI (SR leukemia) was over 100 µM. It also gave a GI50 (TK-10 renal) of 6.88 µM and a TGI (TK-10 renal) of over 100 µM.

In the case of C[C@@H](N)C1CCC(C(=O)Nc2ccncc2)CC1 (stereo partly drawn), the GI50 (A549 NSCLC) is reported as over 100 µM, the TGI (A549 NSCLC) is reported as over 100 µM and the GI50 (ACHN renal) is reported as over 100 µM. For the same compound, the TGI (ACHN renal) was over 100 µM, the GI50 (HCT-116 colon) was over 100 µM and the TGI (HCT-116 colon) was over 100 µM. It also gave a GI50 (HOP-62 NSCLC) of over 100 µM, a TGI (HOP-62 NSCLC) of over 100 µM and a GI50 (OVCAR-8 ovarian) of over 100 µM. The TGI (OVCAR-8 ovarian) was over 100 µM, the GI50 (SF-268 CNS) was over 83 µM and the TGI (SF-268 CNS) was over 100 µM. The GI50 (SF-295 CNS) was over 100 µM, the TGI (SF-295 CNS) was over 100 µM and the GI50 (SK-OV-3 ovarian) was over 100 µM. The TGI (SK-OV-3 ovarian) was over 100 µM, the GI50 (SR leukemia) was 36.4 µM and the TGI (SR leukemia) was over 100 µM. For the same compound, the GI50 (TK-10 renal) was 8.7 µM and the TGI (TK-10 renal) was over 100 µM.

Work on Nc1nc(Cl)cc(NCCCCCNc2cc(Cl)nc(N)n2)n1 yielded a TGI (A549 NSCLC) of over 100 µM, a TGI (ACHN renal) of 52.2 µM and a TGI (HCT-116 colon) of over 100 µM. For the same compound, the TGI (HOP-62 NSCLC) was over 100 µM, the TGI (OVCAR-8 ovarian) was over 100 µM and the TGI (SF-268 CNS) was over 100 µM. For the same compound, the TGI (SF-295 CNS) was over 100 µM, the TGI (SK-OV-3 ovarian) was over 100 µM and the TGI (SR leukemia) was over 100 µM. The TGI (TK-10 renal) was over 100 µM.

With C=CC(=O)N1C/C(=C\c2ccccc2)C(=O)/C(=C/c2ccccc2)C1 the TGI (A549 NSCLC) was 9 µM, the TGI (ACHN renal) was 4.53 µM and the GI50 (HCT-116 colon) was 0.355 µM. It also gave a TGI (HCT-116 colon) of 0.397 µM, a TGI (HOP-62 NSCLC) of 6.28 µM and a GI50 (OVCAR-8 ovarian) of 0.8 µM. The TGI (OVCAR-8 ovarian) was 4.94 µM, the TGI (SF-268 CNS) was 5.61 µM and the TGI (SF-295 CNS) was 5.07 µM. For the same compound, the TGI (SK-OV-3 ovarian) was 7.58 µM, the GI50 (SR leukemia) was 0.566 µM and the TGI (SR leukemia) was 0.935 µM and 5.24 µM. For the same compound, the TGI (TK-10 renal) was 7 µM.

N=C(N)/N=C(\N)c1c(-c2cc(O)ccc2O)nc2sccn12 showed a GI50 (A549 NSCLC) of over 100 µM, a TGI (A549 NSCLC) of over 100 µM and a GI50 (ACHN renal) of 20.8 µM. It also gave a TGI (ACHN renal) of 40.5 µM, a GI50 (HCT-116 colon) of 17.3 µM and a TGI (HCT-116 colon) of 35.9 µM. The GI50 (HOP-62 NSCLC) was 29.4 µM, the TGI (HOP-62 NSCLC) was 84.6 µM and the GI50 (OVCAR-8 ovarian) was 59.9 µM. The TGI (OVCAR-8 ovarian) was over 100 µM, the GI50 (SF-268 CNS) was over 100 µM and the TGI (SF-268 CNS) was over 100 µM. The GI50 (SF-295 CNS) was over 100 µM, the TGI (SF-295 CNS) was over 100 µM and the GI50 (SK-OV-3 ovarian) was over 100 µM. The TGI (SK-OV-3 ovarian) was over 100 µM, the GI50 (SR leukemia) was 22.7 µM and the TGI (SR leukemia) was 87.2 µM. It also gave a GI50 (TK-10 renal) of 17.9 µM and a TGI (TK-10 renal) of 36.4 µM.
